Results from US20250143990A1, “SKIN MICROBIOME FRIENDLY SUNSCREENS” (BASF SE, priority 2022, published 2025).

Test: Solubility in water
Format: physicochemical

solubility in water: ng/L range
SMILES: CC(C)(C)CC(C)(C)c1cc(Cc2cc(C(C)(C)CC(C)(C)C)cc(-n3nc4ccccc4n3)c2O)c(O)c(-n2nc3ccccc3n2)c1 [2,2′-methylene bis[6-(2H-benzotriazol-2-yl)-4-(1,1,3,3-tetramethylbutyl)phenol]]
